≈ marks a conversion by molar mass, not a printed value.

The assay relates to Mycobacterium tuberculosis variant bovis BCG. The experiment in a line: microbe, parasite or virus in culture. The class given is functional.
With `O=C(Nc1nc(-c2ccccn2)cs1)c1ccc(-c2ccccc2F)o1`, the MIC90 was 5.2 µM (≈ 1.9 µg/mL).

Molecule `Brc1c(-c2ccc3c(c2)OCO3)nc2ncccn12` displayed an MIC90 of 2.4 µM (≈ 0.764 µg/mL).

As for `Cn1c(=O)c(C(=O)NNC(=O)c2cccc(Cl)c2)c(O)c2ccccc21`, the MIC90 came out at 5.3 µM (≈ 1.97 µg/mL). The figure for `CCCCC1=NN(C(=O)c2ccncc2)C(O)(C(F)(F)F)C1` (stereo not given) is 5.5 µM (≈ 1.73 µg/mL); for `CC(=O)Nc1ccc(S(=O)(=O)Nc2ccc(N3CCCCC3)cc2)cc1` it is 5.2 µM (≈ 1.94 µg/mL). The figure for `Oc1cc(CSc2ccc(Cl)cc2)nc(-c2ccccn2)n1` is 5.3 µM (≈ 1.75 µg/mL). For `O=C(Nc1nnc(-c2ccc(Cl)cc2)o1)c1cccc(C(F)(F)F)c1` the value was 5.3 µM (≈ 1.95 µg/mL). Take `O=C(Nc1ccc(OC(F)(F)F)cc1)NC1CCCCC1`: the MIC90 came to 4.8 µM (≈ 1.45 µg/mL). `Brc1cncc(-c2cc(NCCCn3ccnc3)nc(-c3ccccc3)n2)c1` registered an MIC90 of 7.6 µM (≈ 3.31 µg/mL).

The molecule `Cc1cc(NC(=O)COc2ccc(Cl)cc2)n(-c2nc(C)c(C)c(=O)[nH]2)n1` displayed an MIC90 of 4.8 µM (≈ 1.86 µg/mL). With `O=S(=O)(CCNCC1CC1)c1cccc(Nc2ccc(-c3cccc(F)c3)cn2)c1`, the MIC90 came to 5.3 µM (≈ 2.26 µg/mL). For `Cc1cccc(-c2nc(C(=O)Nc3ccnc4ncnn34)cs2)c1` the value was 5.3 µM (≈ 1.78 µg/mL); for `COc1ccc(NC(=O)N2CCCN(c3nc4c(C)c(C)ccc4cc3C#N)CC2)cc1`, 5.3 µM (≈ 2.28 µg/mL); for `c1coc(-c2nnc(Sc3ccnc(N4CCN(c5ccncc5)CC4)n3)n2CCN2CCOCC2)c1`, 5.3 µM (≈ 2.75 µg/mL). Take `O=C(NNC(=O)c1cccs1)c1csc(COc2ccccc2Cl)n1`: the MIC90 worked out at 5.3 µM (≈ 2.09 µg/mL).

`COc1cc(C(F)(F)F)nc2ccc(C)c(N)c12` gave an MIC90 of 9.7 µM (≈ 2.49 µg/mL). The figure for `O=C(c1cc2c(s1)CCC2)N1CCN(Cc2ccc3c(c2)OCO3)CC1` is 9.2 µM (≈ 3.41 µg/mL). The figure for `Br.Cc1cc(C)cc(OCCCON2C(=N)N=C(N)NC2(C)C)c1` is 7 µM; for `O=C(CCCOc1ccccc1)Nc1nc(-c2ccccn2)cs1` it is 5.4 µM (≈ 1.83 µg/mL); for `COc1cc(C2c3c(-c4ccccc4)n[nH]c3C(=O)N2c2ccc(Cl)cc2)ccc1O` (stereo not given) it is 5.4 µM (≈ 2.33 µg/mL). The figure for `Cc1ccc(C2CC(C(F)(F)F)n3ncc(C(=O)NCc4ccc5c(c4)OCO5)c3N2)cc1` (stereo not given) is 1.9 µM (≈ 0.871 µg/mL).

The molecule `c1ccc(CCNc2cc(-c3ccccc3)nc3nncn23)cc1` gave an MIC90 of 8.1 µM (≈ 2.55 µg/mL). The figure for `Cc1cnc(CNCc2ccc(-c3ccc(C(=O)NCCc4ccccc4)c(F)c3)cc2)cn1` is 5.5 µM (≈ 2.5 µg/mL).

As for `Cc1nc(-c2cccnc2)nc(N2CCCN(Cc3ccc(F)cc3)CC2)c1Cl`, the MIC90 is 5.5 µM (≈ 2.27 µg/mL). The figure for `Cc1cc(C(=O)Nc2nc(C)c(C)s2)c2c(C)nn(C(C)C)c2n1` is 5.5 µM (≈ 1.89 µg/mL); for `O=C(Nc1nc(-c2ccccn2)cs1)c1cc2c(s1)CCCC2` it is 5.5 µM (≈ 1.88 µg/mL); for `COc1ccccc1N1CCN(c2cccc3c2nc(/C=C/c2ccncc2)n3C2CCNCC2)CC1` it is 5.5 µM (≈ 2.72 µg/mL). The figure for `Cc1ccc(-c2nnc3sc(Cc4cccs4)nn23)cc1` is 5.5 µM (≈ 1.72 µg/mL); for `CC(C)N1CCN(c2nc(CCN3CCN(c4cccc(C(F)(F)F)c4C#N)CC3)cs2)CC1` it is 5.5 µM (≈ 2.71 µg/mL); for `Cc1cccc(CC(=N)NCCOc2cccc(Cl)c2)c1` it is 5.5 µM (≈ 1.67 µg/mL).

Turning to `COc1cc(OC)c(C(=O)Nc2cccc3c2CCN(C)C3C)cc1Br` (stereo not given), the MIC90 was 5.5 µM (≈ 2.31 µg/mL). The figure for `O=C(O)C(F)(F)F.c1ccc2c(-c3ccc(CNCC4CCNC4)cc3)cncc2c1` (stereo not given) is 7.8 µM. The figure for `COc1ccc(-n2ncc3c(N4CCNCC4)nc(C4CC4)nc32)cc1` is 5.6 µM (≈ 1.96 µg/mL); for `CC(c1nc2ccccc2s1)N(C)C(=O)c1cccc(-n2cnnn2)c1` (stereo not given) it is 5.6 µM (≈ 2.04 µg/mL); for `COc1ccc(-c2ccc(Nc3cccc(S(=O)(=O)CCNCC4CC4)c3)nc2)cn1` it is 5.6 µM (≈ 2.46 µg/mL). The figure for `CCOc1ccc(C(=O)Nc2nc(-c3ccccn3)cs2)cc1OCC` is 5.6 µM (≈ 2.07 µg/mL); for `CN(C)c1cc(C(=O)NCC2CCCCC2)ccc1NC(=O)OCc1ccccc1` it is 5.6 µM (≈ 2.29 µg/mL); for `CCCc1ccc(NC(=O)c2ccc(CN3CCN(Cc4ccsc4)CC3)cc2)cc1` it is 5.6 µM (≈ 2.43 µg/mL). `CCOc1cc(OC)c(C(=O)Nc2cccc3c2CCN(C)C3C)cc1Cl` (stereo not given) gave an MIC90 of 5.6 µM (≈ 2.18 µg/mL). For `CNc1nc(SCC(=O)N(C)Cc2ccc(Cl)s2)nc2ccccc12` the value was 8.9 µM (≈ 3.5 µg/mL); for `O=C(Nc1ccc2c(c1)OCC(=O)N2Cc1ccccc1Cl)NC1CCCCC1`, 5.7 µM (≈ 2.36 µg/mL); for `COc1ccc(-c2cc3nccc(C4CCNCC4)n3n2)cc1`, 5.7 µM (≈ 1.76 µg/mL).

As for `C[C@H]1CN(Cc2cccc(-c3cc(CNC(=O)c4ccc(CC5CCNCC5)cc4)ccc3F)c2)CCN1`, the MIC90 came out at 4.7 µM (≈ 2.42 µg/mL). In turn, `O=C(CSc1ccc(Cl)cc1)Nc1nc(-c2ccccn2)cs1` gave an MIC90 of 4.7 µM (≈ 1.7 µg/mL).

`c1ncn(-c2ccc(COc3ccc(-n4cncn4)cc3)cc2)n1` registered an MIC90 of 6.8 µM (≈ 2.16 µg/mL). The figure for `FC(F)(F)c1ccc2c(N3CCCNCC3)ncc(-c3ccccc3)c2n1` is 4.8 µM (≈ 1.79 µg/mL); for `COc1ccc(-c2nc(C(=O)N3CCCCC3c3nc4ccccc4s3)cs2)cc1` (stereo not given) it is 4.8 µM (≈ 2.09 µg/mL). For `CCc1ccc(C2CC(C(F)(F)F)n3ncc(C(=O)NCc4ccc5c(c4)OCO5)c3N2)cc1` (stereo not given) the value was 4.8 µM (≈ 2.27 µg/mL).

Take `CCOc1ccc(-n2nc3c(C)nnc(NCc4ccccc4)c3c2C)cc1`: the MIC90 came to 4.8 µM (≈ 1.79 µg/mL). For the molecule `O=C(CSc1ccc(Cl)cc1)NNC(=O)c1cccs1`, the MIC90 amounted to 4.8 µM (≈ 1.57 µg/mL). In the case of `CC(C)n1ncc2c(C(=O)NCC(c3cccs3)N3CCOCC3)cc(-c3ccccc3)nc21` (stereo not given), the MIC90 amounted to 2.5 µM (≈ 1.19 µg/mL). The figure for `O=C(OCc1c(F)cccc1Cl)c1ccc(-n2ncc(Cl)c(Cl)c2=O)cc1` is 3.7 µM (≈ 1.58 µg/mL); for `O=C(NCc1ccccc1)N1CCN(Cc2ccc3c(c2)OCO3)CC1` it is 4.9 µM (≈ 1.73 µg/mL); for `CCc1ccc([C@@H]2C[C@H](C(F)(F)F)n3ncc(C(=O)NCc4ccc(OC)cc4)c3N2)cc1` it is 2.7 µM (≈ 1.24 µg/mL). For `Cc1ccc(-c2nnc(NC(=O)c3cccc(F)c3)o2)cc1C` the value was 5 µM (≈ 1.56 µg/mL); for `Cc1sc2nc(C3CC3)n(C3CCN(CC(=O)N4CCCC4)CC3)c(=O)c2c1C`, 5 µM (≈ 2.07 µg/mL); for `CCCNc1cc(-c2ccccc2)nc(-n2nc(C)cc2C)n1`, 5 µM (≈ 1.54 µg/mL).

Consider `O=C(CC1NC(=O)c2ccccc21)Nc1cccc(-c2cc(-c3c(Cl)cccc3Cl)no2)c1` (stereo not given), for which the MIC90 amounted to 5 µM (≈ 2.39 µg/mL). The figure for `Cc1ccc2nc(C)c(-c3ccn(Cc4ccccc4)n3)n2c1` is 5.9 µM (≈ 1.78 µg/mL); for `CCCc1cc(N2CCN(CC#N)CC2)n2ncc(-c3ccccc3)c2n1` it is 5.1 µM (≈ 1.84 µg/mL). The figure for `O=C(CCc1cc2ccccc2o1)NNC(=O)c1cccs1` is 5.1 µM (≈ 1.6 µg/mL); for `Clc1cc(N2CCN(c3ccncc3)CC2)ncn1` it is 5.1 µM (≈ 1.41 µg/mL). For `CCSc1cccc(C(=O)Nc2nnc(-c3ccc(C)cc3C)o2)c1` the value was 5.2 µM (≈ 1.84 µg/mL); for `CCS(=O)(=O)c1cccc(C(=O)Nc2nc(-c3ccccn3)cs2)c1`, 5.2 µM (≈ 1.94 µg/mL); for `O=C(Nc1nc(-c2ccccn2)cs1)c1cccc(S(=O)(=O)N2CCCCC2)c1`, 5.2 µM (≈ 2.23 µg/mL).

Turning to `O=C(Nc1ccccc1-c1nc(Cl)cs1)OCC1CCNCC1`, the MIC90 came out at 5.2 µM (≈ 1.83 µg/mL). For `Cc1nn(Cc2ccccc2)c(Cl)c1C(=O)NC1CCCCCC1` the value was 3.2 µM (≈ 1.11 µg/mL). For `Fc1ccccc1-c1noc(N2CCN(Cc3ccc4c(c3)OCO4)CC2)n1` the value was 6.7 µM (≈ 2.56 µg/mL); for `Cc1cc(NC(=O)c2cc(Br)ccc2Cl)n(-c2nc(C)c(C)c(=O)[nH]2)n1`, 5.3 µM (≈ 2.31 µg/mL). For `Cc1ccc2sc(N(CCCn3ccnc3)C(=O)c3ccco3)nc2c1C` the value was 5.6 µM (≈ 2.13 µg/mL).

For the origin of these results see ChEMBL document CHEMBL2095176, “GSK Tuberculosis Screening Data”.
